Assay results as given in US20220411378A1, “SMALL MOLECULES POLYMERASE INHIBITORS” (GEORGIA STATE UNIVERSITY RESEARCH FOUNDATION, INC., priority 2019, published 2022).
“Also recorded” adds a separate entry of the source. Like-named read-outs stand apart in the source and are kept apart here.

Key:
recHPIV3-JS-NanoLuc = experiment: microbe, parasite or virus in culture; type: cell-based
[1] = tested on: different immortalized cell lines; experiment: Cell proliferation / cytotoxicity in cultured immortalized cell lines; type: cell-based
HPIV1 = type: cell-based
SeV [2] = type: cell-based
MeV = type: cell-based
[3] = tested on: canine distemper virus (CDV); type: cell-based
HPIV2 = type: cell-based
RSV = type: cell-based
influenza A viruses = type: cell-based
[4] = tested on: clinical isolates of HPIV3; type: cell-based
[5] = tested on: clinical isolates HPIV3-9R4 and HPIV3-10L3; experiment: microbe, parasite or virus in culture; type: cell-based
MeV-Edm RdRP = MeV-Edm RdRP (Measles virus, UniProt P12576); type: cell-based
HPIV3-JS RdRP = type: cell-based
CDV-Onderstepoort RdRP = CDV-Onderstepoort RdRP (Canine distemper virus, UniProt P24658); type: cell-based
RSV-derived minigenome = RSV-derived minigenome (Human respiratory syncytial virus A, UniProt P28887); type: cell-based
NiV L = NiV L (Nipah virus, UniProt Q997F0); experiment: cell-based
purified MeV L (L1708) = purified MeV L (L1708) (Measles virus, UniProt Q9WMB3); experiment: biochemical; type: binding
[6] = tested on: MeV L with resistance mutations (LS869P, LI1009F, LY1106S, LS869P/Y942H); type: binding
[7] = biological target: purified MeV P-L proteins (Measles virus, UniProt Q9WMB3); type: biochemical
[8] = tested on: HPIV3 primary transcription; type: cell-based
[9] = tested on: MeV primary transcription; type: cell-based
HPIV3 = experiment: microbe, parasite or virus in culture; type: cell-based
HPIV1 isolate 5F6 = experiment: organism not typed; type: cell-based
in vitro [10] = type: in vitro ADME; conditions: plasma
Method: (§1) To determine stability in plasma, GHP-88309 was incubated in triplicate in pooled human or CD-1 mouse plasma (BioIVT) in glass tubes in a 37° C. shaker-incubator (150 rpm). Procaine and benfluorex served as positive controls and were analyzed in parallel. […] To determine stability in liver microsomes, GHP-88309 was incubated in triplicate in glass tubes in 50 mM Tris-HCl (pH 7.5) buffer with 8 mM MgCl2, 25 μg/mL alamethicin, Phase I and Phase II cofactors (NADPH regenerating system (NRS) and 2 mM UDPGA, respectively) and 0.5 mg total protein pooled mixed gender human liver microsomes (BioIVT) or pooled CD-1 mouse liver microsomes (Xenotech) in a 37° C. shaker incubator (150 rpm). Verapamil served as Phase I positive control, negative controls lacked cofactors and contained 2% (w/v) NaHCO3 in water instead of NRS. Aliquots were taken after 0, 15, […], 30, 60 and 120 minutes and processed as outlined above.

[11] = Stability in human liver microsomes; type: in vitro ADME
Method: as §1

[12] = Stability in mouse liver microsomes; type: in vitro ADME
Method: as §1

[13] = Pharmacokinetics analysis in mice; type: in vivo
SeV [14] = tested on: SeV; parameters: species or system mice; conditions: mouse, in vivo
HPIV3-infected HBTECs = type: cell-based, human
in vitro [15] = conditions: African green monkey
in vitro [16] = conditions: human

NC(=O)c1c(F)cccc1-c1cccc2cnccc12 [GHP-88309, 2-fluoro-6-(5-isoquinolyl)benzamide]
EC50 (recHPIV3-JS-NanoLuc): 0.59 to 1.16 µM | EC50 (recHPIV3-JS-NanoLuc; Human respirovirus 3): < 1 µM | EC50 (recHPIV3-JS-NanoLuc; Human respirovirus 3, read-out: active concentrations against recHPIV3-JS-NanoLuc): 0.4 to 0.78 µM | effect on cell proliferation ([1]; concentration range up to 100 μM): No toxicity was detectable | cytotoxicity ([1]; multi-day incubation, up to 1 mM, infected cells highest 300 μM): no cytotoxicity | inhibitory activity (HPIV1): Inhibitory activity | potency (EC50) against clinical isolates (HPIV1): low-micromolar to submicromolar | inhibitory activity (SeV [2]): Inhibitory activity | inhibitory activity (MeV): Inhibitory activity | potency (EC50) against clinical isolates (MeV): low-micromolar to submicromolar | inhibitory activity [3]: Inhibitory activity | inhibitory activity (HPIV2): not inhibited | inhibitory activity (RSV): not inhibited | inhibitory activity (influenza A viruses): not inhibited | potency (EC50) against clinical isolates [4]: low-micromolar to submicromolar | EC50 ([5]; Human respirovirus 3, HPIV3-9R4 on HBTEC cultures): 0.07 µM | EC50 ([5]; Human respirovirus 3, HPIV3-10L3 on HBTEC cultures): 0.08 µM | inhibition of viral RdRP activity (MeV-Edm RdRP): specific inhibition | inhibition of viral RdRP activity (HPIV3-JS RdRP): specific inhibition | inhibition of viral RdRP activity (CDV-Onderstepoort RdRP): specific inhibition | inhibition of viral RdRP activity (RSV-derived minigenome): not affected | EC50 (NiV L): 314 µM | Kd (purified MeV L (L1708)): 6.2 µM | difference between EC50 and KD concentrations (purified MeV L (L1708)): ~10 fold | binding [6]: drastically reduced | RNA elongation (3′ extension) after back-priming [7]: does not block; also recorded: did not block RNA elongation | de novo RNA synthesis (initiation at the promoter) [7]: inhibits; also recorded: dose-dependent inhibition | viral mRNA amounts during primary transcription [8]: dose-dependent reduction | viral mRNA amounts during primary transcription [9]: dose-dependent reduction | EC50 (HPIV3): 0.105 µM | sterilizing concentration in the basolateral chamber (HPIV3): 10 µM | EC50 (HPIV3; Human respirovirus 3): 0.09 µM | EC50 (HPIV1 isolate 5F6): 0.28 µM | half-life (in vitro [10]; CD-1, mouse): > 15 h | half-life (in vitro [10]; human): > 15 h | half-life ([11]; both sexes, human, pooled human liver microsomes, pH 7.5, human liver microsomes, read-out: half-life (t1/2)): > 15 h | half-life (t1/2) ([11]; human liver microsomes): 15.3 h | half-life ([12]; CD-1, mouse, pooled CD-1 mouse liver microsomes, pH 7.5, mouse liver microsomes, read-out: half-life (t1/2)): > 15 h | half-life (t1/2) ([12]; mouse liver microsomes): > 24 h | effect of multi-day dosing on PK properties ([13]; 150 mg/kg oral, single vs multi dosing): did not significantly (P>0.82) alter | tolerability ([13]; 5-day multi-dose oral, b.i.d. 150 mg/kg): well tolerated; also recorded: no signs of biotoxicity | organ concentrations ([13]; all soft tissues incl. lung, 60 minutes after plasma Cmax, single oral 150 mg/kg): 70 to 246 nmol/g | concentration at 11.5 h ([13]; female, 129x1/SvJ, mouse, plasma, 150 mg/kg oral b.i.d., 4-day treatment period, read-out: drug plasma concentration at trough): ~34 µM | bioavailability ([13]; female, 129x1/SvJ, mouse, plasma, single-dose oral vs i.v.): ~90% | sustained drug plasma concentrations ([13]; single oral dose 150 mg/kg): > 30 µM | IFN-β induction in lung tissue (SeV [14]): significantly lower | IL12b expression in lung tissue (SeV [14]): increased | body temperature (SeV [14]): prevented hypothermia | body weight (SeV [14]): alleviated body weight losses | clinical signs (SeV [14]): significantly alleviated | expression of inflammatory markers (IL-6, TNF, Acod1) (SeV [14]): significantly decreased | humoral anti-SeV response of recoverees (SeV [14]): robust humoral anti-SeV response | lung histopathology (SeV [14]): no statistically significant (P=0.62) pathological changes | lung inflammation and cellular infiltrates (SeV [14]): alleviated | outcome of rechallenge (SeV [14]): complete survival without development of clinical signs | survival (SeV [14]): All treated animals survived; also recorded: complete protection | survival after primary infection (SeV [14]): all animals survived | virus load in lungs (SeV [14]): significantly reduced | virus load in trachea (SeV [14]): significantly reduced | IFN-β levels (HPIV3-infected HBTECs): did not reduce | ISG expression (HPIV3-infected HBTECs): enhanced | TEER and tight junction organization (3D-ALI-HBTEC): unchanged | CC50 (in vitro [15]): > 20 µM | CC50 (in vitro [16]): 1000 µM
